Results taken from patent publication US7998985B2, “1,5-diphenyl-3-pyridinylamino-1,5-dihydropyrrolidin-2-one as CB1 receptor modulator” (Eli Lilly and Company, priority 2006, dated 2011).

What was measured:
human CB2 receptor [1] = target: T1, human CB2 receptor (Homo sapiens, UniProt P34972); test: Antibody-capture SPA GTP-γ-35S binding, antagonist/inverse agonist mode, human CB2 (Sf9 membranes); format: biochemical; conditions: Human CB2 (Sf9 cells) membranes, Table 1
T1 construct: purchased Applied Cell Sciences, Gaithersburg, Md; PerkinElmer Life Sciences, Boston, Mass; host or cells: Sf9 insect cells (recombinant expression), membranes

male Sprague-Dawley rats = test: Microdialysis of monoamines and metabolites in prefrontal cortex; format: in vivo; conditions: rat prefrontal cortex microdialysate; doses as low as 1 mg/kg, p.o.
Experimental: Methods: Implant male Sprague-Dawley rats (260-300 g, Taconic Farms, Germantown, N.Y.) with a cannula (BAS, West Lafayette, Ind.) in the prefrontal cortex (PFC) 5-7 days before the experiment. Insert a concentric type probe with a 4 mm membrane tip extending below the cannula through the cannula about 16 hours before the experiment began and collect the microdialysate from prefrontal cortex and analyze for monoamines and their metabolites. Calculate all microdialysis data as percent change from dialysate basal concentrations with 100% defined as the average of the final three drug pre-injection values and each group having 5-6 rats. Analyze data with ANOVA and follow by a post-hoc Bonferroni test.

hCB1 [2] = target: T2, hCB1 (Homo sapiens, UniProt P21554); test: Antibody-capture SPA GTP-γ-35S binding, antagonist/inverse agonist mode, human CB1 (CHO membranes); format: biochemical; conditions: Human CB1 (CHO cells) membranes; vs saturating methanandamide; mean ± SEM; read-out: Inverse Agonist Potency (Kb)
Experimental: Antibody-Capture SPA GTP-γ-^35S Binding
In cell membranes expressing human or rat CB1 or CB2 receptor, test (3R,5R)-3-[1-methyl-1-(6-trifluoromethyl-pyridin-3-yl)-ethylamino]-1-(4-trifluoromethyl-phenyl)-5-(3-trifluoromethoxy-phenyl)-pyrrolidin-2-one 4-methylbenzenesulfonate (referred to as “Example 2”) for its antagonist/inverse agonist functional GTP-binding. In a 96 well format using a modified antibody capture technique (DeLapp et al., 1999), measure GTP-γ^35S binding. Briefly incubate for 30 minutes at room temperature the GTP-binding assay buffer (20 mM Hepes, 100 mM NaCl, 5 mM MgCl2, pH 7.4), the CHO or Sf9 cell membranes expressing CB1 or CB2, (Applied Cell Sciences, Gaithersburg, Md.; PerkinElmer Life Sciences, Boston, Mass.; prepare membranes as previously described (DeLapp et al., 1999)), Example 2 and the 500 pM GTP-γ-^35S (PerkinElmer Life Sciences, Boston, Mass.). Perform antagonist dose responses in the presence of a saturating dose of a full agonist (methanandamide). […]
To analyze data, subtract background from all wells. […] Determine Kb values using a modification of the Cheng-Prusoff relationship: Kb=IC50/(1+[agonist]/EC50) where IC50 is determined from a four parameter fit of displacement curves, [agonist]=EC50 of full agonist, and EC50 is determined from a four parameter fit of a full agonist concentration response curve (Cheng and Prusoff 1973). […]

human CB2 receptor [3] = target: T1, human CB2 receptor; test: GTP-γ-35S binding, agonist mode, human CB2 (Sf9 membranes); format: biochemical
[4] = tested on: alcohol-preferring (P) rats; test: 12-hour ethanol consumption in alcohol-preferring rats (P rats); format: in vivo, rat; conditions: female P rats, 15% (v/v) ethanol, continuous free access; Example 2 given p.o.
Excerpt: Evaluate Example 2 for its ability to reduce consumption of ethanol in rats selectively bred for high oral ethanol intake (P rats). In addition, study the effects of Example 2 under conditions in which effects of the compound on motivation or the control of behavior by ethanol could be assessed.
Methods: Study the effects of Example 2 on female, alcohol-preferring (P) rats on alcohol consumption under a continuous free access paradigm. For comparative purposes test the standard opioid antagonist naltrexone. Monitor voluntary consumption of 15% (v/v) ethanol. Suspend Example 2 in vehicle (1% CMC, 0.5% SLS, 0.08% povidone, 0.05% Dow Corning antifoam 1510 US) and give p.o. 3 hours prior to the onset of the dark cycle. In addition, measure locomotor activity via infrared sensor.

hCB1 [5] = target: T2, hCB1; test: GTP-γ-35S binding, agonist mode, human CB1 (Sf9 membranes); format: biochemical; design: purchased Applied Cell Sciences, Gaithersburg, Md; PerkinElmer Life Sciences, Boston, Mass; host or cells: Sf9 insect cells (recombinant expression), membranes
[6] = tested on: alcohol-preferring (P) rats; test: Progressive ratio responding maintained by ethanol; format: in vivo, rat; conditions: female P rats, progressive ratio schedule
Excerpt: Assess the ability of Example 2 to reduce the motivational drive controlling ethanol intake.
Methods: Study female alcohol-preferring (P) rats under a progressive ratio schedule in which responding produces 15% ethanol (v/v). Under the progressive ratio schedule, the response requirement for ethanol delivery increases from 1 to 2 and then increments by 2 after 3 ethanol presentations.

[7] = normalised to full agonist methanandamide

T1 sequence (P34972 whole entry): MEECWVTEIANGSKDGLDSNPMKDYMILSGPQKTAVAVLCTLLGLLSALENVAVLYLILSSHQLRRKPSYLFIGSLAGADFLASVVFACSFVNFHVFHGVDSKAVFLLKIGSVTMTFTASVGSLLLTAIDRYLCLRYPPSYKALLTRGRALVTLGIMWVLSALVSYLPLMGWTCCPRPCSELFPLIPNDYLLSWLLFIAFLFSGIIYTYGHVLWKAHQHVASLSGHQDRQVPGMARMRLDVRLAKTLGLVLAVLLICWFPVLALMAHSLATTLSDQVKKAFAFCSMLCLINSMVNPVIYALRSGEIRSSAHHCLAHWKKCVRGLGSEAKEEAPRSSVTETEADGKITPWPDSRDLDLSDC
T2 sequence (P21554 whole entry): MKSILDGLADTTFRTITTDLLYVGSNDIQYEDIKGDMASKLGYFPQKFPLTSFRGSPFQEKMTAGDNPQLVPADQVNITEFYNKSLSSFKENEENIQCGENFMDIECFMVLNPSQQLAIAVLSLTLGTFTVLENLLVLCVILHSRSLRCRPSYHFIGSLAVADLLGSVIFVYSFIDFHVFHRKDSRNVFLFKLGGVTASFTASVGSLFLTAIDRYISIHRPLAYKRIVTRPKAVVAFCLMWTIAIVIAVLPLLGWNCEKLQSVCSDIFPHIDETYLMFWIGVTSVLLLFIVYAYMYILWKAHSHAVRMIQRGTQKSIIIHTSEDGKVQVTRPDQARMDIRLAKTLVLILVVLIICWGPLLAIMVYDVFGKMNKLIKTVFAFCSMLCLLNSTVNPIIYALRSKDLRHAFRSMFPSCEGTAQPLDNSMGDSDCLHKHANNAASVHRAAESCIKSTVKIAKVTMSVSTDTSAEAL

CC(C)(N[C@@H]1C[C@H](c2cccc(OC(F)(F)F)c2)N(c2ccc(C(F)(F)F)cc2)C1=O)c1ccc(C(F)(F)F)nc1.Cc1ccc(S(=O)(=O)O)cc1 [Example 2, (3R,5R)-3-[1-methyl-1-(6-trifluoromethyl-pyridin-3-yl)-ethylamino]-1-(4-trifluoromethyl-phenyl)-5-(3-trifluoromethoxy-phenyl)-pyrrolidin-2-one, 4-methylbenzenesulfonate (1:1)]
Inverse Agonist Potency (Kb, nM) (human CB2 receptor [1]): No measurable activity | cortical monoamine and metabolite levels (male Sprague-Dawley rats): Increase rat cortical monoamine and metabolite levels | Kb (hCB1 [2]): 710 ± 260 pM | Agonist Potency EC50 (nM) (human CB2 receptor [3]): No measurable activity | Agonist Efficacy % (human CB2 receptor [3]; [7]): 0% | consumption of ethanol [4]: decreased in a dose-dependent manner | Agonist Efficacy % (hCB1 [5]; [7]): −47.9 ± 4.7% | EC50 (hCB1 [5]; read-out: Agonist Potency EC50): 580 ± 50 pM | ethanol-seeking behavior and ethanol consumed ([6]; 15% ethanol, dose-dependently): Reduce ethanol-seeking behavior and the consumption of ethanol consumed | reduction of breakpoint ([6]; F(4,20)=4.52, p=0.009): in a dose-dependent manner
